From patent US11596644B2, “Method for treating post-prandial hypoglycemia” (AVOLYNT, priority 2018, dated 2023)
Marks after values point to notes of the source that are not given here.

How the values were obtained:
Type in all cases: in vivo, rat
[1] = Oral pharmacokinetics and excretion in rats
Excerpt: Accordingly, the SGLT1 inhibitor compounds of Formula I or Formula II are locally acting in the gut, and have poor systemic exposure. […] Systemic exposure (e.g., Cmax) can be measured by methods well known in the art, including liquid chromatography mass spectrometry.

[2] = tested on: normal Sprague Dawley rats; assay: Mixed carbohydrate tolerance test in normal rats
Procedure: Study on normal rats. The efficacy of mizagliflozin (decreasing plasma glucose levels) in normal Sprague Dawley rats was determined in a mixed carbohydrate tolerance test. Normal rats were fasted for 16 hours and then given an oral loading dose of 2.0 g/kg of mixed carbohydrate (soluble starch:sucrose:lactose monohydrate=6:3:1). Mizagliflozin (KGA-3235 sebacate), or water as the vehicle control, was then administered as a single oral dose to groups of male rats (n=8/group) at doses of 0.03, 0.1, 0.3, and 1 mg/kg. Voglibose, a glucosidase inhibitor similar to acarbose, was used as a positive control and was administered as a single oral dose to male rats (n=8/group) at dose levels of 0.1, 0.3 and 1 mg/kg. Blood samples were collected just prior to loading with mixed carbohydrate and at 0.5, 1, 2, 3, 4, and 6 hours after loading.

[3] = tested on: STZ-induced diabetic rats; assay: OGTT in STZ-induced diabetic rats (Example 8); settings: for Plasma glucose 0 hr: before dosing; for Plasma glucose 0 hr / Plasma glucose 0.5 hr / Plasma glucose 1 hr / Plasma glucose 2 hr / Plasma glucose 3 hr / ΔAUC (0-1) / ΔAUC (0-1) (% of Control): glucose 2 g/kg, mean ± S.E.M.
Procedure: Study in diabetic rats with glucose. Diabetic rats, induced by intravenous injection of streptozotocin (STZ; 40 mg/kg), were used to determining plasma glucose concentration (PG) 1 hr after oral glucose tolerance test (OGTT). […] Blood was collected via the caudal artery immediately before dosing and 0.5, 1, 2, and 3 hr after dosing. The glucose concentration measurement in plasma used Glucose CII-Test Wako kit (Wako Pure Chemicals Industries, Ltd., Osaka, Japan). The variables used for efficacy assessment were the measurement values of the plasma glucose concentration and the area under the curve for plasma glucose concentration through 1 hr after loading (ΔAUC0-1 hr). The ΔAUC0-1 hr for plasma glucose was calculated based on the trapezoid method using the change of plasma glucose concentrations from pre-value (0 hr).

[4] = tested on: STZ-induced diabetic rats; assay: Mixed carbohydrate tolerance test in STZ-induced diabetic rats (Example 3)
Procedure: Study in diabetic rats. Mizagliflozin was tested in a rat model for diabetes and efficacy, as measured by a relative decrease in plasma glucose, was determined using a mixed carbohydrate tolerance test. Diabetic model rats were prepared by intravenous administration of streptozotocin (STZ) to induce diabetes. Seven days after STZ administration, rats were fasted for 16 hours and then given an oral loading dose of 2.0 g/kg of mixed carbohydrate (soluble starch:sucrose:lactose monohydrate=6:3:1). Mizagliflozin, or water as the vehicle control, was then administered as a single oral dose to groups of male rats (n=8/group) at doses of 0.01, 0.03, 0.1, and 0.3 mg/kg. Another control group was given vehicle and consisted of normal male Sprague Dawley rats that were not administered STZ. Voglibose was also administered as a single oral dose to male rats (n=8/group) at dose levels of 0.03, 0.1 and 0.3 mg/kg. Blood samples were collected just prior to loading with mixed carbohydrate and at 0.5, 1, 2, 3, 4, and 6 hours after loading. Plasma glucose concentrations were determined and ΔAUC0-1 h for plasma glucose was calculated.

[5] = Rattus norvegicus, read-out: ED50 calculated from mean ΔAUC0-1 h (% of control), mixed carbohydrate 2.0 g/kg, single oral dose

bioavailability ([1]; male, rat, plasma, po): 0.01 to 0.08%
excreted in the feces ([1]; rats, oral dosing): > 97 % of orally administered dose
SMILES: Cc1cc(OCCCNCC(C)(C)C(N)=O)ccc1Cc1c(O[C@@H]2O[C@H](CO)[C@@H](O)[C@H](O)[C@H]2O)n[nH]c1C(C)C [mizagliflozin, 3-(3-{4-[3-(β-D-glucopyranosyloxy)-5-isopropyl-1H-pyrazol-4-ylmethyl-]-3-methylphenoxy}propylamino)-2,2-dimethylpropionamide]
Cmax and AUCt versus dose ([1]; oral 3, 10 and 30 mg/kg, fasted male rats): increased with dose, but not in a clear dose proportional manner
ED50 [2, 5]: 0.13 mg/kg
ΔAUC0-1 h of plasma glucose versus vehicle control ([2]; mixed carbohydrate 2.0 g/kg): significantly lowered
Plasma glucose 0 hr ([3]; 0.03 mg/kg oral): 128 ± 10 mg/dL
Plasma glucose 0.5 hr ([3]; 0.03 mg/kg oral): 356 ± 25 mg/dL
Plasma glucose 1 hr ([3]; 0.03 mg/kg oral): 371 ± 33 mg/dL
Plasma glucose 2 hr ([3]; 0.03 mg/kg oral): 172 ± 29 mg/dL
Plasma glucose 3 hr ([3]; 0.03 mg/kg oral): 91 ± 12 mg/dL
ΔAUC (0-1) ([3]; 0.03 mg/kg oral): 174 ± 17 mg·h/dL
ΔAUC (0-1) (% of Control) ([3]; 0.03 mg/kg oral): 90 ± 9 % of Control
Plasma glucose 0 hr ([3]; 0.1 mg/kg oral): 120 ± 12 mg/dL
Plasma glucose 0.5 hr ([3]; 0.1 mg/kg oral): 262 ± 27^y mg/dL
Plasma glucose 1 hr ([3]; 0.1 mg/kg oral): 305 ± 43 mg/dL
Plasma glucose 2 hr ([3]; 0.1 mg/kg oral): 238 ± 53 mg/dL
Plasma glucose 3 hr ([3]; 0.1 mg/kg oral): 137 ± 26 mg/dL
ΔAUC (0-1) ([3]; 0.1 mg/kg oral): 117 ± 18^x mg · dL^−1 · hr
ΔAUC (0-1) (% of Control) ([3]; 0.1 mg/kg oral): 60 ± 9^x % of Control
PG elevation after glucose administration ([3]; 0.03 and 0.1 mg/kg oral, OGTT 2 g/kg): inhibited PG elevation after glucose administration dose dependently
ED50 [4, 5]: 0.096 mg/kg
ΔAUC0-1 h of plasma glucose versus vehicle control ([4]; mixed carbohydrate 2.0 g/kg): significantly lowered
